Experiments:
[1] = molecular target: T1, Amine oxidase [flavin-containing] B (Mus musculus, UniProt Q8BW75); assay: Inhibition of MAO-B in mouse cerebral homogenate using kynuramine as substrate after 30 mins by fluorimetry in the presence of MOA-A inhibitor clorgyline
T1 sequence (Q8BW75 whole entry): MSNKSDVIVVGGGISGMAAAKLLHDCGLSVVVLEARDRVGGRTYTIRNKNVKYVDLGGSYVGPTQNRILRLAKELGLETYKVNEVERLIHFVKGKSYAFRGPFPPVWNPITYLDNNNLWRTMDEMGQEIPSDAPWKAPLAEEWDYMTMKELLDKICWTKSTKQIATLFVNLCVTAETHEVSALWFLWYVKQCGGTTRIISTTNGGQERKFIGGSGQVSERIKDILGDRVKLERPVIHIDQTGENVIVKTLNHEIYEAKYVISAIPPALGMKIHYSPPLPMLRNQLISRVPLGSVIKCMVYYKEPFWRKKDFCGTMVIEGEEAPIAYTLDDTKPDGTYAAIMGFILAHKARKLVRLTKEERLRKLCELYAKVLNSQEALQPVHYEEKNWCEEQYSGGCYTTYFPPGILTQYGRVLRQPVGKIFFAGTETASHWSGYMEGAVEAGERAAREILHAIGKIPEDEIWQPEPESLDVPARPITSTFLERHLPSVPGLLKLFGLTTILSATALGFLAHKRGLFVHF

[2] = molecular target: T1, Amine oxidase [flavin-containing] B; assay: Inhibition of MAO-B in mouse cerebral homogenate using kynuramine as substrate after 30 mins by fluorimetry in the presence of MOA-A inhibitor clorgyline relative to control; settings: 0.5 h
[3] = molecular target: T1, Amine oxidase [flavin-containing] B; assay: Ratio of compound Ki to KW-6002 Ki for MAO-B in mouse cerebral homogenate

For `Cc1ccc(C(=O)Nc2ccc(-c3nc4c([nH]3)c(=O)n(C)c(=O)n4C)cc2)cc1`, the IC50 [1] was 13.9 µM, the Ki [1] was 2.77 µM and the “inhibition (INH)” value [2] was 42.3%.
In the case of `COc1ccc(C(=O)Nc2ccc(-c3nc4c([nH]3)c(=O)n(C)c(=O)n4C)cc2)cc1`, the IC50 [1] is reported as 17.2 µM, the Ki [1] is reported as 3.97 µM and the “inhibition (INH)” value [2] is reported as 32.1%.
In the case of `Cn1c(=O)c2c(nc(-c3ccc(NC(=O)c4ccccc4)cc3)n2C)n(C)c1=O`, the IC50 [1] is reported as 8.9 µM, the Ki [1] is reported as 0.26 µM and the “Ratio Ki” value [3] is reported as 42. For the same molecule, the “inhibition (INH)” value [2] was 67.4%.
In the case of `Cc1ccc(C(=O)Nc2ccc(-c3nc4c(c(=O)n(C)c(=O)n4C)n3C)cc2)cc1`, the IC50 [1] is reported as 11.3 µM, the Ki [1] is reported as 1.63 µM and the “inhibition (INH)” value [2] is reported as 53.7%.
For `COc1ccc(C(=O)Nc2ccc(-c3nc4c(c(=O)n(C)c(=O)n4C)n3C)cc2)cc1`, the IC50 [1] was 10.7 µM, the Ki [1] was 1.18 µM and the “inhibition (INH)” value [2] was 58.2%.
In the case of `Cn1c(=O)c2[nH]c(-c3cccc(NC(=O)c4ccccc4)c3)nc2n(C)c1=O`, the IC50 [1] is reported as 18.9 µM, the Ki [1] is reported as 4.21 µM and the “inhibition (INH)” value [2] is reported as 27.9%.
In the case of `Cc1ccc(C(=O)Nc2cccc(-c3nc4c([nH]3)c(=O)n(C)c(=O)n4C)c2)cc1`, the IC50 [1] is reported as 14 µM, the Ki [1] is reported as 2.87 µM and the “inhibition (INH)” value [2] is reported as 41.6%.
`COc1ccc(C(=O)Nc2cccc(-c3nc4c([nH]3)c(=O)n(C)c(=O)n4C)c2)cc1` was tested, and the IC50 [1] was 16 µM, the Ki [1] was 3.49 µM and the “inhibition (INH)” value [2] was 35.1%.
In the case of `Cn1c(=O)c2c(nc(-c3cccc(NC(=O)c4ccccc4)c3)n2C)n(C)c1=O`, the IC50 [1] is reported as 14.5 µM, the Ki [1] is reported as 2.95 µM and the “inhibition (INH)” value [2] is reported as 40.5%.
In the case of `Cc1ccc(C(=O)Nc2cccc(-c3nc4c(c(=O)n(C)c(=O)n4C)n3C)c2)cc1`, the IC50 [1] is reported as 16.7 µM, the Ki [1] is reported as 3.56 µM and the “inhibition (INH)” value [2] is reported as 34.4%.
In the case of `COc1ccc(C(=O)Nc2cccc(-c3nc4c(c(=O)n(C)c(=O)n4C)n3C)c2)cc1`, the IC50 [1] is reported as 17.8 µM, the Ki [1] is reported as 3.92 µM and the “inhibition (INH)” value [2] is reported as 30.8%.

— ChEMBL document CHEMBL1949551, “Design and synthesis of 8-substituted benzamido-phenylxanthine derivatives as MAO-B inhibitors” (Bioorg Med Chem Lett, 2012)
